Source: ChEMBL document CHEMBL4732134, “Identification of N-phenyl-3-methoxy-4-pyridinones as orally bioavailable H receptor antagonists and β-amyloid aggregation inhibitors for the treatment of Alzheimer's disease” (Eur J Med Chem, 2021)

What was measured:
Histamine H2 receptor = Histamine H2 receptor (Homo sapiens, UniProt P25021); experiment: Antagonist activity at human histamine H2 receptor expressed in HEK293 cells preincubated for 5 mins followed by forskolin-stimulation and measured after 5 hrs by CRE-driven luciferase reporter gene assay; assay type: functional, cell-based
Sequence of Histamine H2 receptor (P25021 whole entry): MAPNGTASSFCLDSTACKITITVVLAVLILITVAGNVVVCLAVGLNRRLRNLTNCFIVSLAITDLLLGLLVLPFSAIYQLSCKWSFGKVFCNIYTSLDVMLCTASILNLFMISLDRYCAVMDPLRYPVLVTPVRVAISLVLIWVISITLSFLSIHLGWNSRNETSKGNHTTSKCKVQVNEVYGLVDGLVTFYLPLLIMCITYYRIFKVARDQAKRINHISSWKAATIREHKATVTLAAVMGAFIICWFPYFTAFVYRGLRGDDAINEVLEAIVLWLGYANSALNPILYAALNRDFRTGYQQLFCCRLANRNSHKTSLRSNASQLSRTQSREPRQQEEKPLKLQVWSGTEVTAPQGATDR

hERG (KCNH2) = hERG (KCNH2) (Homo sapiens, UniProt Q12809); experiment: Inhibition of human ERG at 3 uM by patch clamp method relative to control
Sequence of hERG (KCNH2) (Q12809 whole entry): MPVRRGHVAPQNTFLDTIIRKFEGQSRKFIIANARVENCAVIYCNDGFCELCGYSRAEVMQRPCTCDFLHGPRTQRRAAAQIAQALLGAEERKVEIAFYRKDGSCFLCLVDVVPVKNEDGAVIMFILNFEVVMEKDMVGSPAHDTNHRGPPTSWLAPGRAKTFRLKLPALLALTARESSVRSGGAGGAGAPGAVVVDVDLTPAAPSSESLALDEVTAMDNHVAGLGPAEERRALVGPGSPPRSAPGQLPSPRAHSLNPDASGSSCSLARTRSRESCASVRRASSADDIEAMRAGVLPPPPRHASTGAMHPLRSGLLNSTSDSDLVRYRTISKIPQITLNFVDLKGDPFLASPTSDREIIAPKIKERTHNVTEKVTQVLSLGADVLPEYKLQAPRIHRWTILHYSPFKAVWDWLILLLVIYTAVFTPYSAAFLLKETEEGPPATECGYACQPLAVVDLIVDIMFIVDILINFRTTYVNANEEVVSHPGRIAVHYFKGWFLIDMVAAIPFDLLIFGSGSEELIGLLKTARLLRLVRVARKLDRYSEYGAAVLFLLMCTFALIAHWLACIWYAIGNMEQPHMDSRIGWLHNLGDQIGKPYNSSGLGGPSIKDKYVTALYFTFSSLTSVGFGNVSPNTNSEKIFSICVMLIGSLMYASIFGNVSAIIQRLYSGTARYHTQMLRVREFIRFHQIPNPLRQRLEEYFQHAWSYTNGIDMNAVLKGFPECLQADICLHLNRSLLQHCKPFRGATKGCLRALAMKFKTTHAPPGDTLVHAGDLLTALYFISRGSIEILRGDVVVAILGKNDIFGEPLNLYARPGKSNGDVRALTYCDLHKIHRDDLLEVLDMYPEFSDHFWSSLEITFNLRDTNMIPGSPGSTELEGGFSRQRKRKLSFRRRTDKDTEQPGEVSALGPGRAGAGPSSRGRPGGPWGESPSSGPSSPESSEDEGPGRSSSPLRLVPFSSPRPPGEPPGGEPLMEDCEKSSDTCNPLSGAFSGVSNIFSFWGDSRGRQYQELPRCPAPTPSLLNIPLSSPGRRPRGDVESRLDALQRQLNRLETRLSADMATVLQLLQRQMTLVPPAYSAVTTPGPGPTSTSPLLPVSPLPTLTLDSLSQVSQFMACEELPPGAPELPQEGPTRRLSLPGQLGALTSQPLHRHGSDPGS

Histamine H4 receptor = Histamine H4 receptor (Homo sapiens, UniProt Q9H3N8); experiment: Antagonist activity at human histamine H4 receptor expressed in HEK293 cells preincubated for 5 mins followed by forskolin-stimulation and measured after 5 hrs by CRE-driven luciferase reporter gene assay; assay type: functional, cell-based
Histamine H1 receptor = Histamine H1 receptor (Homo sapiens, UniProt P35367); experiment: Antagonist activity at human histamine H1 receptor expressed in HEK293 cells preincubated for 5 mins followed by forskolin-stimulation and measured after 5 hrs by CRE-driven luciferase reporter gene assay; assay type: functional, cell-based
Sequence of Histamine H1 receptor (P35367 whole entry): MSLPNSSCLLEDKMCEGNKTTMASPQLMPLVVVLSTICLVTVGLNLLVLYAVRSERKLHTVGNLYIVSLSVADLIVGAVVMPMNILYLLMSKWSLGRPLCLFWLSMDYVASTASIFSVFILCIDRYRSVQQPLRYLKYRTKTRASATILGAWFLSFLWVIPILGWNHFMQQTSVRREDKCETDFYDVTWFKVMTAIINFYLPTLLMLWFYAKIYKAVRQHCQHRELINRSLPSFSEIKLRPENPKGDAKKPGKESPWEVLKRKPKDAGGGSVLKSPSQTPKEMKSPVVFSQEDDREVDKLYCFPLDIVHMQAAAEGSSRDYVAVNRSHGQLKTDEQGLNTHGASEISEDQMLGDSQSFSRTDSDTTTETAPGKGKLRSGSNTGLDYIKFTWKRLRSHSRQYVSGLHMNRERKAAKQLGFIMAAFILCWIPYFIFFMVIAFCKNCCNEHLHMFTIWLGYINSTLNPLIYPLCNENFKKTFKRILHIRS

- IC50 (Histamine H2 receptor): > 10 µM
- IC50 (Histamine H4 receptor): > 10 µM
- IC50 (Histamine H1 receptor): > 10 µM
SMILES: COc1cn(-c2ccc(OCCCN3CCCC3)cc2)ccc1=O
- inhibition at 3 µM (hERG (KCNH2)): 6.3%
